In patent US7074824B2, “Pharmaceutical compositions containing beta-lapachone, or derivatives or analogs thereof, and methods of using same” (Arqule, Inc., priority 2001, dated 2006):
Values after ≈ are worked out from the molar mass of the structure shown. Read-outs that look alike come from different tables or passages of the source.

How the values were obtained:
[1] = Solubility in water and in 40% (w/v) HPBCD solution by UV absorbance; type: physicochemical; details: for solubility at 1 h: thermodynamic from solid
Description: To determine solubilities, test compounds were first dissolved in ethanol to prepare standard solutions with concentrations in the range 2.5–10 mg/ml, then were diluted with to 10 μg/ml with water. UV scans were obtained of the 10 μg/ml standard solutions, and the wavelength of maximum absorbance and the absorbance at the maximum absorbance wavelength were determined. For each test compound 50 μl aliquots of water and of 40% HPBCD were added to individual Eppendorf tubes containing approximately 1 mg of compound each. The tubes were heated in a 30° C. waterbath, vortexed, then centrifuged at 15,000 rpm for 5 min. This step was repeated, then the tubes were cooled to room temperature for 1 hour, then were centrifuged again. The supernatant from each tube was diluted with water into the appropriate absorbance range, and the UV absorbance was measured at the compound's absorbance maximum wavelength. The concentrations of these saturated solutions were then calculated by ratio to the 10 μg/ml ethanolic standard solutions.

human PBMC = details: cited from earlier work
[2] = Relative solubility of 14C-labeled β-lapachone in aqueous solutions of solubilizing agents; type: physicochemical
Description: In light of the above, two different strategies were used to enhance β-lapachone solubility in aqueous solution. First, β-lapachone was treated with metal chelating agents, such as calcium and magnesium, to form soluble complexes; second, β-lapachone was treated with the solubilizing agents β-cyclodextrin and γ-cyclodextrin to form soluble inclusion complexes. In order to evaluate these four reagents, ^14C-labeled β-lapachone in a small volume of ethanol was added to aqueous solutions of the reagents (or to PBS buffer as a control), then the relative solubility of β-lapachone in each of the solutions was measured in terms of radioactivity remaining in the supernatant after centrifugation.
Specifically, to individual 1.5 ml Eppendorf tubes containing 900 μl of PBS buffer were added the following: 8 mM CaCl2 in PBS buffer, 8 mM of MgCl2 in PBS buffer, 8 mM β-cyclodextrin in PBS buffer, and 8 mM γ-cyclodextrin in PBS buffer. 10 μl of C^14 labeled β-lapachone (40,000 CPM, 0.55 μg) in 75% ethanol was then added to each tube. After vortexing and centrifuging at 13,000 rpm for 10 min, 100 μl of the supernatant solution was counted for radioactivity using a Beckman Scintillation Counter. […] After vortexing and centrifuging at 13,000 rpm for 10 min, 100 μl of the supernatant solution was counted again for radioactivity. […]

human cancer cell lines = details: single agent, typical range; read-out: antineoplastic activity (IC50); cited from earlier work
MCF-7 = assay: MTS growth inhibition assay; type: cell-based, human; details: Homo sapiens
Description: (§1) A2780 and A2780/CP (ovarian); MCF-7 (breast); HT-29 (colon); BxPC-3 (pancreas); and A549 (lung). The human tumor cell lines (purchased from ATCC, Rockville, Md.) were cultured at 37° C. […] Nova Tech, Grand Island, N.Y.) containing 10% fetal bovine serum (FBS, Nova Tech). Aliquots of cells were seeded into each well of 96-well microtiter plates at a final concentration of 10^4 cells/well and incubated for 24 h prior to exposure to test compounds. […] The MTS assay is a colorimetric assay based upon the ability of viable cells to convert MTS, a novel tetrazolium compound and electron-coupling reagent, to a colored formazan product that is soluble in cell culture medium. The cell concentration is then determined by measuring the absorbance of the formazan product at 490 nm. Growth inhibition, expressed as IC50, is calculated relative to vehicle-treated control cells.

A2780 = assay: MTS growth inhibition assay; type: cell-based, human; details: Homo sapiens
Description: as §1

BxPC-3 = assay: MTS growth inhibition assay; type: cell-based, human; details: Homo sapiens
Description: as §1

HT-29 = assay: MTS growth inhibition assay; type: cell-based, human; details: Homo sapiens
Description: as §1

A2780CP = assay: MTS growth inhibition assay; type: cell-based, human; details: Homo sapiens, A2780C/P
Description: as §1

A549 = assay: MTS growth inhibition assay; type: cell-based, human; details: Homo sapiens
Description: as §1

CC1(C)CCC2=C(O1)c1ccccc1C(=O)C2=O [β-lapachone]
Solubility Enhancement ([1]; 1 h): 323 −Fold
solubility at 1 h ([1]; aqueous with cosolvent or surfactant or cyclodextrin): 14000 µg/mL (≈ 57.8 mM)
solubility at 1 h ([1]; water): 43 µg/mL (≈ 0.177 mM)
cytotoxic effects on normal cells (human PBMC): No cytotoxic effects were observed
β-lapachone present in the supernatant ([2]; 0.5 μg β-lapachone added, all five aqueous solutions (PBS, CaCl2, MgCl2, β-cyclodextrin, γ-cyclodextrin)): ~100%
β-lapachone retained in the supernatant ([2]; 600 μg β-lapachone added, 8 mM β-cyclodextrin in PBS buffer (only this solution)): more than 50%
IC50 (human cancer cell lines): 1 to 10 µM
IC50 (MCF-7; MCF7, read-out: Growth inhibitory activity (50% effective concentration, IC50), MCF-7 breast, Exp 1): 2.37 µM
IC50 (MCF-7; MCF7, read-out: Growth inhibitory activity (50% effective concentration, IC50), MCF-7 breast, Exp 2): 4.75 µM
IC50 (MCF-7; MCF7, read-out: Growth inhibitory activity (50% effective concentration, IC50), MCF-7 breast, Exp 3): 2.1 µM
IC50 (MCF-7; MCF7, read-out: Growth inhibitory activity (50% effective concentration, IC50), MCF-7 breast, Mean ± SE of 3 experiments): 3.07 ± 0.84 µM
IC50 (A2780; A2780, read-out: Growth inhibitory activity (50% effective concentration, IC50), A2780 (sensitive) ovarian, Exp 1, 4 h treatment + 24 h drug-free): 2.11 µM
IC50 (A2780; A2780, read-out: Growth inhibitory activity (50% effective concentration, IC50), A2780 (sensitive) ovarian, Exp 2, 4 h treatment + 24 h drug-free): 3.99 µM
IC50 (A2780; A2780, read-out: Growth inhibitory activity (50% effective concentration, IC50), A2780 (sensitive) ovarian, Exp 3, 4 h treatment + 24 h drug-free): 0.876 µM
IC50 (A2780; A2780, read-out: Growth inhibitory activity (50% effective concentration, IC50), A2780 (sensitive) ovarian, Mean ± SE of 3 experiments): 2.32 ± 0.91 µM
IC50 (BxPC-3; BXPC-3, read-out: Growth inhibitory activity (50% effective concentration, IC50), BxPC-3 pancreas, Exp 1): 11.6 µM
IC50 (BxPC-3; BXPC-3, read-out: Growth inhibitory activity (50% effective concentration, IC50), BxPC-3 pancreas, Exp 2): 5.68 µM
IC50 (BxPC-3; BXPC-3, read-out: Growth inhibitory activity (50% effective concentration, IC50), BxPC-3 pancreas, Exp 3): 16.5 µM
IC50 (BxPC-3; BXPC-3, read-out: Growth inhibitory activity (50% effective concentration, IC50), BxPC-3 pancreas, Mean ± SE of 3 experiments): 11.3 ± 3.12 µM
IC50 (HT-29; HT-29, read-out: Growth inhibitory activity (50% effective concentration, IC50), HT-29 colon, Exp 1): 5.37 µM
IC50 (HT-29; HT-29, read-out: Growth inhibitory activity (50% effective concentration, IC50), HT-29 colon, Exp 2): 11.4 µM
IC50 (HT-29; HT-29, read-out: Growth inhibitory activity (50% effective concentration, IC50), HT-29 colon, Exp 3): 9.89 µM
IC50 (HT-29; HT-29, read-out: Growth inhibitory activity (50% effective concentration, IC50), HT-29 colon, Mean ± SE of 3 experiments): 8.89 ± 1.82 µM
IC50 (A2780CP; read-out: Growth inhibitory activity (50% effective concentration, IC50), A2780CP (resistant) ovarian, Exp 1): 4.47 µM
IC50 (A2780CP; read-out: Growth inhibitory activity (50% effective concentration, IC50), A2780CP (resistant) ovarian, Exp 2): 1.61 µM
IC50 (A2780CP; read-out: Growth inhibitory activity (50% effective concentration, IC50), A2780CP (resistant) ovarian, Exp 3): 1.76 µM
IC50 (A2780CP; read-out: Growth inhibitory activity (50% effective concentration, IC50), A2780CP (resistant) ovarian, Mean ± SE of 3 experiments): 2.61 ± 0.93 µM
IC50 (A549; A549, read-out: Growth inhibitory activity (50% effective concentration, IC50), A549 lung, Exp 1): 4.48 µM
IC50 (A549; A549, read-out: Growth inhibitory activity (50% effective concentration, IC50), A549 lung, Exp 2): 4.73 µM
IC50 (A549; A549, read-out: Growth inhibitory activity (50% effective concentration, IC50), A549 lung, Exp 3): 18.7 µM
IC50 (A549; A549, read-out: Growth inhibitory activity (50% effective concentration, IC50), A549 lung, Mean ± SE of 3 experiments): 9.3 ± 4.69 µM
